Source: patent US4883815A, “Hydrocinnamic acid derivatives” (Hoffmann-La Roche Inc., priority 1987, dated 1989)

Assay: acute toxicity, single oral administration
Conditions: mouse, in vivo
Text: Moreover, the Table contains data for the acute toxicity (LD50 in mg/kg in the case of single oral administration to mice).

[1] = acute toxicity, single oral administration to mice

| Compound | LD50 [1] [mg/kg] | LD50 (po) [mg/kg] |
| --- | --- | --- |
| CCOC(=O)CCc1cc(Cl)ccc1C(=O)CCCNC(C)=O [Example 2, ethyl 2-(4-acetamidobutyryl)-5-chloro-hydrocinnamate] | > 5000 | – |
| CCCOC(=O)CCc1cc(Cl)ccc1C(=O)CCCNC(C)=O [Example 3, propyl 2-(4-acetamidobutyryl)-5-chlorohydrocinnamate] | > 5000 | – |
| CC(=O)NCCCC(=O)c1ccc(Cl)cc1CCC(=O)OC(C)C [Example 4, isopropyl 2-(4-acetamidobutyryl)-5-chlorohydrocinnamate] | > 4000 | – |
| CCOC(=O)CCc1cc(Cl)ccc1C(=O)CCCNC(=O)CCCNC(C)=O [Example 8, ethyl 2-[4-(4-acetamidobutyramido)butyryl]-5-chlorohydrocinnamate] | > 5000 | – |
| CC(=O)NCCCC(=O)c1ccc(Cl)cc1CCC(N)=O [Example 19, 2-(4-acetamidobutyryl)-5-chlorohydrocinnamide] | – | > 4000 |
| CCOC(=O)CC[C@H](NC(=O)CCc1cc(Cl)ccc1C(=O)CCCNC(C)=O)C(=O)OCC [Example 29, diethyl N-[2-(4-acetamidobutyryl)-5-chlorohydrocinnamoyl]-L-glutamate] | > 5000 | – |
| CCOC(=O)CNC(=O)CCc1cc(Cl)ccc1C(=O)CCCNC(C)=O [Example 30, ethyl N-[2-(4-acetamidobutyryl)-5-chlorohydrocinnamoyl]-glycinate] | > 5000 | – |
| CCCCCCCOC(=O)CCc1cc(Cl)ccc1C(=O)CCCNC(C)=O [H H Cl H H O(CH2)6CH3 CH3 H H Oxo] | – | > 5000 |
